target: T1, 3-oxo-5-alpha-steroid 4-dehydrogenase 2 (Homo sapiens, UniProt P31213); experiment: Compound was tested for the inhibition of Steroid 5-alpha-reductase type 2 of human prostates; type: tissue-based, Prostate gland; conditions: not given
T1 sequence (P31213 whole entry): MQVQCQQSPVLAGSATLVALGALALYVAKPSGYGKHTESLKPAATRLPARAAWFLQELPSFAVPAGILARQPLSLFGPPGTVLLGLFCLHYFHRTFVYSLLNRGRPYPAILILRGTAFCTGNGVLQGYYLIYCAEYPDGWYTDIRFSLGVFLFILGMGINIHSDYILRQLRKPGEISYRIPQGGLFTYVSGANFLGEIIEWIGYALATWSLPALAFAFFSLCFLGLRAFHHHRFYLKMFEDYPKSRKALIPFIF

IC50 [nM] | Structure (SMILES)
570 | CC(C)N(C(=O)COc1ccc(-c2ccc(C(=O)O)cc2C(F)(F)F)cc1)C(C)C
> 10000 | CC(C)N(C(=O)COc1ccc(-c2c(F)cc(C(=O)O)cc2F)cc1)C(C)C
> 10000 | CC(C)N(C(=O)COc1ccc(-c2c(Cl)cc(C(=O)O)cc2Cl)cc1)C(C)C
870 | CC(C)N(C(=O)COc1ccc(-c2ccc(C(=O)O)cc2Cl)cc1)C(C)C
> 10000 | Cc1cc(C(=O)O)cc(C)c1-c1ccc(OCC(=O)N(C(C)C)C(C)C)cc1
71 | CC(C)c1cc(-c2ccc(C(=O)O)cc2)cc(C(C)C)c1OCC(=O)N(C(C)C)C(C)C
> 10000 | CC(C)N(C(=O)COc1cc(Cl)c(-c2ccc(C(=O)O)cc2)c(Cl)c1)C(C)C
830 | CC(C)N(C(=O)COc1ccc(-c2ccc(C(=O)O)cc2)cc1)C(C)C

target: T2, 3-oxo-5-alpha-steroid 4-dehydrogenase 2 (Homo sapiens) (UniProt P31213); experiment: Compound was tested for the inhibition of Steroid 5-alpha-reductase type 2 of human prostates at a concentration of 10e-6 M; type: tissue-based; conditions: Prostate gland
T2 sequence (whole entry): T1 sequence (P31213 whole entry)

inhibition [%] | Structure (SMILES)
32.5 | CC(C)N(C(=O)c1ccc(-c2ccc(C(=O)O)cc2)cc1)C(C)C
0 | CC(C)N(C(=O)c1cc(I)c(-c2ccc(C(=O)O)cc2)c([N+](=O)[O-])c1)C(C)C
0 | CC(C)N(C(=O)c1cc(I)c(-c2ccc(C(=O)O)cc2)c(I)c1)C(C)C
37 | CC(C)N(C(=O)Cc1ccc(-c2ccc(C(=O)O)cc2)cc1)C(C)C
0 | CC(C)N(C(=O)c1cc(Br)c(-c2ccc(C(=O)O)cc2)c(Br)c1)C(C)C
0 | CC(C)N(C(=O)c1cc([N+](=O)[O-])c(-c2ccc(C(=O)O)cc2)c([N+](=O)[O-])c1)C(C)C
26.9 | CC(C(=O)N(C(C)C)C(C)C)c1ccc(-c2ccc(C(=O)O)cc2)cc1 (stereo not drawn)
0 | CC(C)N(C(=O)c1cc(N)c(-c2ccc(C(=O)O)cc2)c(N)c1)C(C)C
57.5 | CC(C)N(C(=O)COc1ccc(-c2ccc(C(=O)O)cc2)cc1)C(C)C

target: T1, 3-oxo-5-alpha-steroid 4-dehydrogenase 2; experiment: Compound was tested for the inhibition of type 2 5-alpha-reductase of human prostates; type: tissue-based, Prostate gland; conditions: not given

Structure (SMILES) | IC50 [nM]
O=C(COc1c(F)cc(-c2ccc(C(=O)O)cc2)cc1[N+](=O)[O-])NC(c1ccccc1)(c1ccccc1)c1ccccc1 | 92
CC(C)N(C(=O)[C@H]1CCC2C3CC[C@H]4NC(=O)CC[C@]4(C)C3CC[C@@]21C)C(C)C (stereo partly drawn) | 41
CC(C)N(C(=O)[C@H]1CC[C@H]2[C@@H]3CCc4cc(C(=O)O)ccc4[C@H]3CC[C@]12C)C(C)C | 2.1
CC(C)N(C(=O)COc1c(F)cc(-c2ccc(C(=O)O)cc2)cc1[N+](=O)[O-])C(C)C | 9.8

Second part, the compound after the results:

IC50 [nM] | Structure (SMILES)
350 | CCc1cc(-c2ccc(C(=O)O)cc2)ccc1OCC(=O)N(C(C)C)C(C)C
2000 | CCc1cc(OCC(=O)N(C(C)C)C(C)C)ccc1-c1ccc(C(=O)O)cc1

Reference: ChEMBL document CHEMBL1134121, “Biphenyls as surrogates of the steroidal backbone. Part 2: discovery of a novel family of non-steroidal 5-alpha-reductase inhibitors” (Bioorg Med Chem Lett, 2001)
